# Where a name gives a salt, the structure may show the parent alone.
# What was measured:
# ΔF508-CFTR = ΔF508-CFTR (Homo sapiens, UniProt P13569, DEL508-508); type: cell-based; design: which was then ligated into full length pNUT-CFTR linearized using Hpa1 and Pml1; expressed in transfected cells; details: for signal in the trafficking assay / ΔF508-CFTR correctors identified by highthroughput screening: hit class: Microsource Discovery library, 20 μM; for signal in the trafficking assay: medium and weak hits; for hit in screen (class letter) / hit in screen (score): Prestwick library, initial corrector assay; for hit in screen (class letter) / ΔF508-CFTR correctors identified by highthroughput screening: hit class: BHK cells; for hit in screen (score): standard deviations above untreated controls; for ΔF508-CFTR correctors identified by highthroughput screening: hit class: 37° C.
# ΔF508-CFTR, sequence (P13569 with tags, fused parts or gaps DEL508-508): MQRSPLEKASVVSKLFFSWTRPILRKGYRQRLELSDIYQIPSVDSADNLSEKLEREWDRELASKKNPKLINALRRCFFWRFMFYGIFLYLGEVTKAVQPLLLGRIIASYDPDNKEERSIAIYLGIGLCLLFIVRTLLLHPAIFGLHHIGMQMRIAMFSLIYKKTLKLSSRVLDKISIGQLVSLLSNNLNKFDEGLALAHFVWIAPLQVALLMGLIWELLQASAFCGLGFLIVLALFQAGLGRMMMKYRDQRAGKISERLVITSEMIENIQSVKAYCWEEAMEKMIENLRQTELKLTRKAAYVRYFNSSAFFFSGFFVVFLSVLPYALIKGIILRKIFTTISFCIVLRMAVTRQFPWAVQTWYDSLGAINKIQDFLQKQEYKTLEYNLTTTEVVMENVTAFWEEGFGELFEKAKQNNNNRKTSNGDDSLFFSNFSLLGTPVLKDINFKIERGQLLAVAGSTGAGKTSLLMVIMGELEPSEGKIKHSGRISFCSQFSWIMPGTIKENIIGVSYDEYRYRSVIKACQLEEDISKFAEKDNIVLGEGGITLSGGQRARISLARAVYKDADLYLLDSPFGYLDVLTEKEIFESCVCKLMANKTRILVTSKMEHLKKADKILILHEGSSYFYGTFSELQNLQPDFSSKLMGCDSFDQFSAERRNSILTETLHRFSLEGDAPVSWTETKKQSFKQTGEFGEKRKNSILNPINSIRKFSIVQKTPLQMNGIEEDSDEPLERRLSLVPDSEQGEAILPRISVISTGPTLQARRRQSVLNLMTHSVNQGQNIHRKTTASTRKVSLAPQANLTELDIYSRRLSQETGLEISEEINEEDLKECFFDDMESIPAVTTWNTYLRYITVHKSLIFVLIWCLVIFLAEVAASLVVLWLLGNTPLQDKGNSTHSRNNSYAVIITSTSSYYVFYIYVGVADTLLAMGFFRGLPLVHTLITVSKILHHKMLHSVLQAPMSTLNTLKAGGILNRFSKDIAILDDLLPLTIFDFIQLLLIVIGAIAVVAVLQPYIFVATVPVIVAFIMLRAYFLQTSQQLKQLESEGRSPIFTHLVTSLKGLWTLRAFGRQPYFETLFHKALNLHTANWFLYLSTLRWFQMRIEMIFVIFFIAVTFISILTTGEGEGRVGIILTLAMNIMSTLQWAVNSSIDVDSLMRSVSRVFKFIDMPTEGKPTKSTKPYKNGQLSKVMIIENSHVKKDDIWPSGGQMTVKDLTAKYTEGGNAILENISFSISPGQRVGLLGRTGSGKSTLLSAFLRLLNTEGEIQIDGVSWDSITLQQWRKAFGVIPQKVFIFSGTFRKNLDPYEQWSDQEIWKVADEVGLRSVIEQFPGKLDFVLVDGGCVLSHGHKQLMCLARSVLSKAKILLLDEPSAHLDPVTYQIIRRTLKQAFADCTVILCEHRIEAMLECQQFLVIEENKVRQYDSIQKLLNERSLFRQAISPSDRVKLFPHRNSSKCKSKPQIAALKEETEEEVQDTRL
# Protocol: BHK cells expressing 3HA-tagged ΔF508-CFTR between passages 5-8 were seeded in 96-well plates (Corning half area, black-sided, clear bottom) at 15,000 cells per well and incubated with culture medium for 24 h at 37° C. Each well was then treated with a different test compound (80 compounds per plate) for 24 h at 20 μM final concentration. The remaining 16 wells on each plate were used for control conditions. […] Cells were fixed in a 4% paraformaldehyde solution, washed with PBS, and blocked with PBS containing 5% fetal bovine serum (FBS) for 1 hat 4° C.
# Blocking solution was replaced with 15 μl of primary antibody solution containing 1% FBS and mouse monoclonal anti-HA antibody (1:150 dilution, Sigma) in PBS. The plates were sealed and left at 4° C. overnight. After three washes with 100 μl PBS, cells were incubated for 1 h with 15 μl of secondary antibody solution containing 1% FBS and anti-mouse IgG conjugated with FITC (1:100 dilution, Sigma) in PBS. Cells were again washed three times with 100 μl of PBS and analyzed in a plate reader (Analyst™ HT96.384, Biosystems; 488 nm excitation/510 nm emission). […] The mean fluorescence of four untreated wells was used as the background signal when calculating deviations of the 80 compound-treated wells. Hits were then cherry-picked into reservoir plates and re-tested in duplicate using the same assay.
# BHK cells expressing ΔF508-CFTR were incubated with test compounds (20 μM) for 24 hours at 37° C. in a 96 well format. Plasma membrane expression of ΔF508-CFTR was then assayed by immunofluorescence using a primary antibody directed against the inserted 3HA tag and a secondary antibody conjugated with a fluorophore (FITC). […] The positive compounds were selected and retested in duplicate to obtain an N of 3. At the re-screening stage, the intrinsic fluorescence of each potential hit was also measured and the fluorescent ones were not considered further.
# Screening was performed using BHK cells that stably express F508-CFTR bearing three tandem haemagglutinin-epitope tags (3HA) and linker sequences in the fourth extracellular loop after amino acid 901 (Howard et al., 1995; Carlile et al., 2007; Robert et al., 2008). […] Screening was performed using the Prestwick Chemical Library of 1120 high-purity compounds.
# F508del CFTR = target: T1, F508del CFTR (Homo sapiens, UniProt P13569, DEL508-508); experiment: YFP fluorescence quenching functional assay (iodide influx), HEK293 cells with F508del CFTR and halide sensitive YFP; type: cell-based; details: 10 μM, 24 h, nc = 100% pc = 69.2; for remaining activity at 10 µM: HEK293, read-out: % YFP quench
# T1 construct: expressed in transfected cells; host or cells: HEK293 Griptite cells stably expressing F508del CFTR, transiently transfected with halide-sensitive eYFP
# T1 sequence (P13569 with tags, fused parts or gaps DEL508-508): as above
# Protocol: In addition to the MDS compounds, the 1120 Prestwick Library compounds were screened. (See FIGS. 7 to 12.) Of the compounds, one qualified as a “strong” hit, 3 as “medium” hits and 57 as “weak” hits. The Z score for the assay was 0.62. The top 50 hits were further tested in a counter screen in which the halide sensitive fluorescent compound (YFP) was expressed inside cells (Table 2). After incubation with the test compounds the ability of the cells to uptake iodide was measure by decreasing YFP fluorescence. In these cells this can only occur if functional CFTR is present at the cell surface (FIG. 7). The hits were also tested for the appearance of the Band C form of CFTR. […] The functionality of the compounds was further studied by the use of Iodide efflux assays for each compound in both BHK and the more physiologically relevant CFBE cells. […] FIG. 10 is a table of results for the 15 hit compounds which summarizes many experiments. […] The results for the best 15 compounds from the Prestwick Library, or “Prestwick 15”, are shown FIGS. 8, 9 and 10.
# Strongly adhesive Human […] Kidney cells stably expressing both the human macrophage scavenger receptor (HEK293 Griptite, Invitrogen) and F508del CFTR were plated in 96-well plates and transiently transfected with pcDNA3 plasmid encoding a halide sensitive variant of eYFP. After 24-48 h later cells were exposed to 10 μM test compound in triplicate and incubated for an additional 24 h. Cells were stimulated for 20 minutes with a in a buffer containing 25 μM forskolin, 45 μM IBMX and 50 μM genistein final concentration. The high content screening assay was performed using a Cellomics platform. Iodide was added robotically to a final concentration of 50 mM and the resulting decrease in fluorescence was measured. Images were taken at time 0 and stored for subsequent use when calculating a mask so that only those cells that express YFP at time 0 are measured. The quenching was detected in 15 images taken over the course of an experiment lasting 40 seconds. Each test compound was compared to the following two controls: a negative control without drugs to assess photobleaching that may occur when the same field of view is repeatedly imaged, and a positive control with cells treated with a known potentiator. Results were generated from 150-300 cells per well.
Compound,hit in screen (class letter) (ΔF508-CFTR),hit in screen (score) (ΔF508-CFTR),remaining activity at 10 µM (F508del CFTR),other results
"1-deacetoxy-1-oxo-3,7 dideactyl khivorin",–,–,–,signal in the trafficking assay (ΔF508-CFTR; 24 hours): consistently elevated signal
"CN(Cc1cnc2nc(N)nc(N)c2n1)c1ccc(C(=O)N[C@@H](CCC(=O)O)C(=O)O)cc1 (racemic) [Amethopterin (R, S)]","W (Medium and weak hits were defined as compounds giving a cell fluorescence signal that was between 2 and 3 or 1 and 2 standard deviations, respectively, above untreated control wells)",1.2,–,% YFP quench (F508del CFTR): 109%
"OCC(O)CN1CCN(c2ccccc2)CC1 (racemic) [Dropropizine (R, S)]","W (Medium and weak hits were defined as compounds giving a cell fluorescence signal that was between 2 and 3 or 1 and 2 standard deviations, respectively, above untreated control wells)",1.2,–,% YFP quench (F508del CFTR): 92%
C[C@]12CCC3C(CC[C@H]4C[C@@H](Cl)CC[C@]34C)C1CCC2=O (stereo partly drawn) [3-beta chloroandrostanone],–,–,–,signal in the trafficking assay (ΔF508-CFTR; 24 hours): consistently elevated signal
N[C@H]1CONC1=O [(S)-(−)-Cycloserine],"W (Medium and weak hits were defined as compounds giving a cell fluorescence signal that was between 2 and 3 or 1 and 2 standard deviations, respectively, above untreated control wells)",1.4,–,% YFP quench (F508del CFTR): 98%
CC(=O)c1ccc(S(=O)(=O)NC(=O)NC2CCCCC2)cc1 [Acetohexamide],"W (Medium and weak hits were defined as compounds giving a cell fluorescence signal that was between 2 and 3 or 1 and 2 standard deviations, respectively, above untreated control wells)",1.0,88%,–
Nc1ncnc2c1ncn2[C@@H]1O[C@H](COP(=O)(O)O)[C@@H](O)[C@H]1O.O [Adenosine 5′-monophosphate monohydrate],"W (Medium and weak hits were defined as compounds giving a cell fluorescence signal that was between 2 and 3 or 1 and 2 standard deviations, respectively, above untreated control wells)",1.1,78%,–
"c1ccc(CNc2ncnc3[nH]cnc23)cc1 [Aminopurine, 6-benzyl]","W (Medium and weak hits were defined as compounds giving a cell fluorescence signal that was between 2 and 3 or 1 and 2 standard deviations, respectively, above untreated control wells)",1.6,–,% YFP quench (F508del CFTR): 89%
CC1=CC(=O)C2=C(C)C[C@H](O)[C@@H]3[C@H](OC(=O)[C@H]3C)[C@H]12 [Austricine hydrate],"W (Medium and weak hits were defined as compounds giving a cell fluorescence signal that was between 2 and 3 or 1 and 2 standard deviations, respectively, above untreated control wells)",1.1,91%,–
NC(=O)N1c2ccccc2C=Cc2ccccc21 [Carbamazenine],"W (Medium and weak hits were defined as compounds giving a cell fluorescence signal that was between 2 and 3 or 1 and 2 standard deviations, respectively, above untreated control wells)",1.1,–,% YFP quench (F508del CFTR): 86%
CCOC(=O)n1ccn(C)c1=S [Carbimazole],"W (Medium and weak hits were defined as compounds giving a cell fluorescence signal that was between 2 and 3 or 1 and 2 standard deviations, respectively, above untreated control wells)",1.0,95%,–
Clc1ccc(Cn2c(CN3CCCC3)nc3ccccc32)cc1 [Clemizole hydrochloride],"W (Medium and weak hits were defined as compounds giving a cell fluorescence signal that was between 2 and 3 or 1 and 2 standard deviations, respectively, above untreated control wells)",1.5,84%,–
C[C@@H]1CCC[C@H](C)N1NC(=O)c1ccc(Cl)c(S(N)(=O)=O)c1 [Clopamide],"W (Medium and weak hits were defined as compounds giving a cell fluorescence signal that was between 2 and 3 or 1 and 2 standard deviations, respectively, above untreated control wells)",1.1,79%,–
C#CCN(C)CCCOc1ccc(Cl)cc1Cl [Clorgyline hydrochloride],"W (Medium and weak hits were defined as compounds giving a cell fluorescence signal that was between 2 and 3 or 1 and 2 standard deviations, respectively, above untreated control wells)",1.0,77%,–
Cc1[nH]ccc2c1[nH]c1cc(=O)ccc12 [Harmol hydrochloride dihydrate],–,–,92%,–
NC(=O)N/N=C/c1ccc([N+](=O)[O-])o1 [Nitrofural],–,–,94%,–
CN(Cc1cc(Br)cc(Br)c1N)C1CCCCC1 [bromhexine],–,–,–,signal in the trafficking assay (ΔF508-CFTR; 24 hours): consistently elevated signal
N.N.O=C([O-])C1(C(=O)[O-])CCC1.[Pt+2] [carboplatin],–,–,–,ΔF508-CFTR correctors identified by highthroughput screening: hit class (ΔF508-CFTR; 24 hours): strong hits
O=C(N[C@H](CO)[C@H](O)c1ccc([N+](=O)[O-])cc1)C(Cl)Cl [chloramphenicol],–,–,–,ΔF508-CFTR correctors identified by highthroughput screening: hit class (ΔF508-CFTR; 24 hours): strong hits
COC(=O)c1c(Cl)c(Cl)c(C(=O)OC)c(Cl)c1Cl [dacthal],–,–,–,ΔF508-CFTR correctors identified by highthroughput screening: hit class (ΔF508-CFTR; 24 hours): strong hits
O=c1c(-c2ccc(O)cc2)coc2cc(O)ccc12 [daidzein],–,–,–,signal in the trafficking assay (ΔF508-CFTR; 24 hours): consistently elevated signal
C[C@]12CC[C@H](O)CC1=CC[C@@H]1[C@@H]2CC[C@]2(C)C(=O)CC[C@@H]12 [dyhydroepiandrosterone],–,–,–,signal in the trafficking assay (ΔF508-CFTR; 24 hours): consistently elevated signal
CC1(C)[C@@H](O[C@H]2O[C@H](C(=O)O)[C@@H](O)[C@H](O)[C@H]2O[C@@H]2O[C@H](C(=O)O)[C@@H](O)[C@H](O)[C@H]2O)CC[C@]2(C)[C@H]3C(=O)C=C4[C@@H]5C[C@@](C)(C(=O)O)CC[C@]5(C)CC[C@@]4(C)[C@]3(C)CC[C@@H]12 [glycyrrhizic acid],–,–,–,ΔF508-CFTR correctors identified by highthroughput screening: hit class (ΔF508-CFTR; 24 hours): strong hits
CC(=O)O[C@H]1C[C@@H](OC(C)=O)C(C)(C)[C@@H]2C[C@@H](OC(C)=O)[C@]3(C)[C@H](CC[C@@]4(C)[C@H](c5ccoc5)OC(=O)[C@H]5O[C@@]534)[C@@]12C [khivorin],–,–,–,signal in the trafficking assay (ΔF508-CFTR; 24 hours): consistently elevated signal
O=C1N[C@@H]2[C@@H](O)[C@@H](O)[C@H](O)[C@@H](CO)N2C1=O [kifunesine],–,–,–,"increase in signal, suitability as positive control for the corrector assay screen (ΔF508-CFTR; kifunesine 100 μM, Sodium 4 Phenylbutyrate 1 mM, curcumin 40 μM, 24 hours): not sufficient to act as a positive control"
didectylkhivorin,–,–,–,signal in the trafficking assay (ΔF508-CFTR; 24 hours): consistently elevated signal
